Experimental data from patent publication US20190255073A1, “ESTERS OF 3-POLYAMINE DERIVATIVES OF BILE ACIDS FOR THE TREATMENT OF INFECTIONS” (VIRBAC, priority 2016, published 2019).
Converted amounts (≈) assume the structure as drawn. Where two headings read alike, the source gives them in different places.

How the values were obtained:
S. aureus ATCC25923 = assay: MIC determination by microplate dilution, S. aureus human strain; format: cell-based, Staphylococcus aureus; conditions: Staphylococcus aureus, ATCC25923, Gram-positive, Mueller-Hinton medium, 24 h, 37° C.
Protocol: (§1) 1) Preparation of the Preculture
(§2) A negative control (2 mL of sterile culture medium)
(§3) A positive control (1940 μL of culture medium+40 μL of DMSO+20 μL of bacterial suspension) from a thawed biological strain (the biological strains are stored at −80° C. in glycerol).
(§4) The tubes were incubated at 37° C. for 24 hours at 100 rpm.
(§5) The microorganisms were handled under a type L2 laboratory fume cupboard and, before any handling, a UV cycle was programmed and only sterile material was used. […] The chemical compounds to be tested were prepared in a DMSO/methanol mixture (50/50) at a concentration of 5 mg/mL.
(§6) 2) Preparation of the Microplate for the Determination of the Minimum Inhibitory Concentration (MIC)
(§7) After 24 hours of incubation, a measurement of the optical density was taken using a spectrophotometer at 600 nm, collecting 100 μL of the bacterial suspension diluted in 900 μL of the sterile culture medium. This test required the use of a 96-well plate and the required volume of the microbial suspension to be seeded was calculated for an OD corresponding to a value equal to 0.01 in each well. In this plate, the first line corresponded to the negative control (195 μL of sterile culture medium in each well), the second line to the positive control (seeded culture medium supplemented with 2% of DMSO), the third line was loaded twice with bacterial suspension, 8 μL of test product were placed in each well. Thereafter, a 0.5 cascade dilution was performed from this line.
(§8) The first column served as inhibition control. A sterile filter was then placed on the microplate, allowing the passage of gases but not of contaminants. The microplate was incubated at 37° C. under a humid atmosphere for 24 hours.
(§9) NB: The medium used is Mueller-Hinton (MH) medium for bacteria. All the tests were performed in duplicate.
(§10) 4) Reading of the Results
(§11) After incubation, the filter was replaced with a transparent film, and an OD reading was then taken in an iEMS plate spectrophotometer at 620 nm. Calculation of the minimum inhibitory concentration (MIC) was performed.

S. aureus (340) = assay: MIC determination by microplate dilution, S. aureus animal strain; format: cell-based, Staphylococcus aureus; conditions: Staphylococcus aureus, Gram-positive, Mueller-Hinton medium, 24 h, 37° C.
Protocol: as §1, §2, §3, §4, §5, §6, §7, §8, §9, §10, §11

S. intermedius (1051997) = assay: MIC determination by microplate dilution, S. intermedius animal strain; format: cell-based, Staphylococcus intermedius; conditions: Staphylococcus intermedius, Gram-positive, Mueller-Hinton medium, 24 h, 37° C.
Protocol: as §1, §2, §3, §4, §5, §6, §7, §8, §9, §10, §11

E. faecalis ATCC29212 = assay: MIC determination by microplate dilution, E. faecalis human strain; format: cell-based, Enterococcus faecalis; conditions: Enterococcus faecalis, ATCC29212, Gram-positive, Mueller-Hinton medium, 24 h, 37° C.
Protocol: as §1, §2, §3, §4, §5, §6, §7, §8, §9, §10, §11

E. coli ATCC28922 = assay: MIC determination by microplate dilution, E. coli human strain; format: cell-based, Escherichia coli; conditions: Escherichia coli, ATCC28922, Gram-negative, Mueller-Hinton medium, 24 h, 37° C.
Protocol: as §1, §2, §3, §4, §5, §6, §7, §8, §9, §10, §11

E. coli (1956) = assay: MIC determination by microplate dilution, E. coli animal strain; format: cell-based, Escherichia coli; conditions: Escherichia coli, Gram-negative, Mueller-Hinton medium, 24 h, 37° C.
Protocol: as §1, §2, §3, §4, §5, §6, §7, §8, §9, §10, §11

P. aeruginosa ATCC27853 = assay: MIC determination by microplate dilution, P. aeruginosa human strain; format: cell-based, Pseudomonas aeruginosa; conditions: Pseudomonas aeruginosa, ATCC27853, Gram-negative, Mueller-Hinton medium, 24 h, 37° C.
Protocol: as §1, §2, §3, §4, §5, §6, §7, §8, §9, §10, §11

P. aeruginosa (1051575) [1] = assay: MIC determination by microplate dilution, P. aeruginosa animal strain; format: cell-based, Pseudomonas aeruginosa; conditions: Pseudomonas aeruginosa, Gram-negative, Mueller-Hinton medium, 24 h, 37° C.
Protocol: as §1, §2, §3, §4, §5, §6, §7, §8, §9, §10, §11

CHO-K1 cells = assay: WST1 cytotoxicity test on CHO-K1 cells; format: cell-based, Chinese hamster; conditions: Cricetulus griseus, read-out: IC50 (μg/mL) CHO
Protocol: Test WST1 was used to measure the cytotoxic activity of the products. This is a colorimetric test which makes it possible to measure the viability and the degree of cell proliferation. It is based on cleavage of the colorless tetrazolium salts WST-1 (4-[3-(4-iodophenyl)-2-(4-nitrophenyl)-2H-5-tetrazolio]-1,3-benzene disulfonate) with mitochondrial dehydrogenases to the yellow-colored formazan derivative, which may be quantified by spectrophotometry at 420-480 nm.
The WST1 test was performed on Chinese hamster ovary cells. The CHO-K1 cells (ATCC, USA) are kept in culture on McCoy's 5A medium supplemented with 10% fetal calf serum, 2 mM of L-glutamine and a mixture of penicillin-streptomycin (100 U/ml: 10 μg/mL). The culture is incubated at 37° C. under an atmosphere enriched in CO2 (5%), and subcultured every two days.
The cells are transferred into 96-well plates (25 000 cells/mL) in whole McCoy's 5A medium, and maintained for 24 hours at 37° C. under a humid atmosphere enriched in CO2 (5%). Increasing concentrations of test products are added to the wells in double tests and 8 growth controls containing the cells in the medium alone are included in each series of tests. After 24 hours at 37° C. (5% CO2), the culture medium is removed, the cells are rinsed in phosphate buffer (PBS) and 50 μL of PBS containing 10% of reagent WST1 are added to each well. After 20 minutes of incubation at 37° C., the results are read by spectrophotometry at 450 nm.
The results are expressed in dose-response relationships, modeled by nonlinear regression analysis using the TableCurve software. The 50% inhibitory concentration (IC50) represents the concentration of product that is capable of reducing the cell viability by 50%.

P. aeruginosa (1051575) [2] = assay: Potentiation of the doxycycline activity at 2 μg/mL; format: cell-based, Pseudomonas aeruginosa; conditions: in combination with doxycycline 2 μg/mL; 24 h, 37°
C. albicans = assay: Antifungal activity, cascade microdilution, C. albicans; format: cell-based, Candida albicans; conditions: Candida albicans; compounds as hydrochloride in water; MH medium; 24 h; read-out: IC50 (μg/mL) C. albicans

SMILES	MIC (S. aureus ATCC25923) [µg/mL]	MIC (S. aureus (340)) [µg/mL]	MIC (S. intermedius (1051997)) [µg/mL]	MIC (E. faecalis ATCC29212) [µg/mL]	MIC (E. coli ATCC28922) [µg/mL]	MIC (E. coli (1956)) [µg/mL]	MIC (P. aeruginosa ATCC27853) [µg/mL]	MIC (P. aeruginosa (1051575) [1]) [µg/mL]	IC50 (CHO-K1 cells; CHO-K1, 24 h) [µg/mL]	MIC - P. aeruginosa (1051575): content of compound of formula (I) to restore the doxycycline activity (at 2 μg/mL) (P. aeruginosa (1051575) [2]) [µg/mL]	IC50 (CHO-K1 cells; CHO-K1, CHO (Example 7)) [µg/mL]	IC50 (C. albicans) [µg/mL]
COC(=O)CC[C@@H](C)[C@H]1CCC2C3C(CC[C@@]21C)[C@@]1(C)CC[C@H](NCCCNCCCNCCCN)CC1C[C@@H]3O (stereo partly drawn) [Compound (12), methyl 3β-norsperminoursodeoxycholate]	7 (≈ 12.1 µM)	4 (≈ 6.93 µM)	1 (≈ 1.73 µM)	30 (≈ 52 µM)	4 (≈ 6.93 µM)	60 (≈ 104 µM)	30 (≈ 52 µM)	7 (≈ 12.1 µM)	20 (≈ 34.7 µM)	2	–	–
CC(C)OC(=O)CC[C@@H](C)[C@H]1CCC2C3C(CC[C@@]21C)[C@@]1(C)CC[C@H](NCCCNCCCN)CC1C[C@@H]3O (stereo partly drawn) [Compound (14), isopropyl 3β-norspermidinoursodeoxycholate]	–	55 (≈ 100 µM)	12.5 (≈ 22.8 µM)	–	–	110 (≈ 201 µM)	–	110 (≈ 201 µM)	–	–	200 (≈ 365 µM)	28 (≈ 51.1 µM)
COC(=O)CC[C@@H](C)[C@H]1CCC2C3C(CC[C@@]21C)[C@@]1(C)CC[C@H](NCCCN(C)CCCN)CC1C[C@H]3O (stereo partly drawn) [(37), methyl 3β-(bis(3-aminopropyl)methylamine)chenodeoxycholate]	27 (≈ 50.6 µM)	27 (≈ 50.6 µM)	> 107	13 (≈ 24.4 µM)	27 (≈ 50.6 µM)	13 (≈ 24.4 µM)	27 (≈ 50.6 µM)	13 (≈ 24.4 µM)	115 (≈ 215 µM)	3	–	–
COC(=O)CC[C@@H](C)[C@H]1CCC2C3C(CC[C@@]21C)[C@@]1(C)CC[C@H](NCCNCCNCCNCCNCCN)CC1C[C@@H]3O (stereo partly drawn) [(50), methyl 3β-(pentaethylenehexamine)ursodeoxycholate]	30 (≈ 48.3 µM)	30 (≈ 48.3 µM)	8 (≈ 12.9 µM)	60 (≈ 96.6 µM)	60 (≈ 96.6 µM)	60 (≈ 96.6 µM)	60 (≈ 96.6 µM)	60 (≈ 96.6 µM)	45 (≈ 72.5 µM)	16	–	–
CC(C)OC(=O)CC[C@@H](C)[C@H]1CCC2C3CCC4C[C@@H](NCCCNCCCN)CC[C@]4(C)C3C[C@H](O)[C@@]21C (stereo partly drawn) [Compound (2), isopropyl 3β-norspermidinodeoxycholate]	3 (≈ 5.48 µM)	3 (≈ 5.48 µM)	3 (≈ 5.48 µM)	14 (≈ 25.6 µM)	14 (≈ 25.6 µM)	28 (≈ 51.1 µM)	14 (≈ 25.6 µM)	14 (≈ 25.6 µM)	60 (≈ 110 µM)	3	–	–
CC(C)OC(=O)CC[C@@H](C)[C@H]1CCC2C3C(CC[C@@]21C)[C@@]1(C)CC[C@H](NCCCN(C)CCCN)CC1C[C@H]3O (stereo partly drawn) [(41), isopropyl 3β-(bis(3-aminopropyl)methylamine)chenodeoxycholate]	14 (≈ 24.9 µM)	14 (≈ 24.9 µM)	7 (≈ 12.5 µM)	28 (≈ 49.8 µM)	56 (≈ 99.7 µM)	28 (≈ 49.8 µM)	28 (≈ 49.8 µM)	28 (≈ 49.8 µM)	4 (≈ 7.12 µM)	4	–	–
